Tests used:
[1] = tested on: Proteus mirabilis C889; test: Minimum inhibitory concentration (mic), synergistical activity against β-lactamase producing organisms; assay type: cell-based; conditions: substance alone
Description: (§1) The minimum inhibitory concentrations (mic) of ampicillin N-methylcarbamoylclavulanic acid, and mixtures of ampicillin and N-methylcarbamoylclavulanic acid were determined against 4 β-lactamase producing organisms.
(§2) MIC's (in μg/ml) of Ampicillin and N-methylcarbamoylclavulanic acid
(§3) combinations thereof against 4 β-lactamase producing organisms.

[2] = tested on: Escherichia coli JT4; test: as above; assay type: cell-based; conditions: substance alone
Description: as §1, §2, §3

[3] = tested on: Staphylococcus aureus Russell; test: as above; assay type: cell-based; conditions: substance alone
Description: as §1, §2, §3

[4] = tested on: Klebsiella aerogenes E70; test: as above; assay type: cell-based; conditions: substance alone
Description: as §1, §2, §3

[5] = Stability of n.m.r. solution (D2O); assay type: physicochemical
Description: n.m.r. (D2 O) 2.88 (3H,s, NCH3) 3.20 (1H,d, J 18Hz, 6β-CH) 3.70 (1H,dd, J 18Hz J' 3Hz 6α-CH) 5.7δ (1H,d, J 3Hz, 5-CH); the other protons were obscured by the water peak.

Compound | MIC [1] | MIC [2] | MIC [3] | MIC [4] | degradation of the n.m.r. solution [5]
CC1(C)S[C@@H]2[C@H](NC(=O)[C@H](N)c3ccccc3)C(=O)N2[C@H]1C(=O)O [Ampicillin, ampicillin, reference compound] | > 500 µg/mL | > 5000 µg/mL | 500 µg/mL | 250 µg/mL | 
CNC(=O)OC/C=C1\O[C@@H]2CC(=O)N2[C@H]1C(=O)O [N-methylcarbamoylclavulanic acid] | > 500 µg/mL | > 500 µg/mL | 250 µg/mL | 500 µg/mL | 
CNC(=O)OC/C=C1\O[C@@H]2CC(=O)N2[C@H]1C(=O)O [Sodium N-methylcarbamoylclavulanate] |  |  |  |  | signs of rapid degradation
